Columns and labels:
HS-Sch-2 = test: relative IC50 (inflection point of fitted dose-response curve, CellTiter-Glo viability, 72 h; top asymptote may be below 50% inhibition); higher = less potent
How it was run: (§1)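 After seeding 750–1000 cells per well of MPNST cell lines or primary human Schwann cells into 384-well plates preprinted with each compound at five concentrations in 10-fold steps, plates were kept 72 h at 37 °C, 5% CO2. Viability was read as CellTiter-Glo ATP luminescence relative to vehicle and positive-control wells, with duplicates averaged where present. The data were fitted with four-parameter logistic models. Drug sensitivity score and relative IC50, censored at the top concentration, derive from the fits, and percent inhibition refers to the top concentration.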

HSC1 [1] = test: as above
How it was run: as §1

HS-PSS [2] = test: as above
How it was run: as §1

ST8814 [3] = test: as above
How it was run: as §1

YST-1 = test: as above
How it was run: as §1

HSC2 [4] = test: as above
How it was run: as §1

STS26T [5] = test: as above
How it was run: as §1

S1507-2 [6] = test: relative IC50 (inflection point of fitted dose-response curve, CellTox-Green cytotoxicity, 72 h; top asymptote may be below 50%); higher = less potent
How it was run: (§2)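 For 72 h at 37 °C, MPNST cell lines and primary human Schwann cells were exposed in 384-well plates to five 10-fold compound dilutions. CellTox-Green, added before seeding at a final 1:1000 dilution, gave fluorescence from DNA released by disrupted cells. Signals were scaled to vehicle and positive-control wells, cultures failing plate quality control were left out, and four-parameter logistic fits were applied. Relative IC50 and drug sensitivity score were derived from the fits, with IC50 censored at the top concentration.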

HSC1 [7] = test: as above
How it was run: as §2

HS-PSS [8] = test: as above
How it was run: as §2

ST8814 [9] = test: as above
How it was run: as §2

HSC2 [10] = test: as above
How it was run: as §2

STS26T [11] = test: as above
How it was run: as §2

S1507-2 [12] = test: relative IC50 (inflection point of fitted dose-response curve, CellTiter-Glo viability, 72 h; top asymptote may be below 50% inhibition); higher = less potent
How it was run: as §1

S462 = test: as above
How it was run: as §1

SMILES	relative IC50 (HS-Sch-2) [nM]	relative IC50 (HSC1 [1]) [nM]	relative IC50 (HS-PSS [2]) [nM]	relative IC50 (ST8814 [3]) [nM]	relative IC50 (YST-1) [nM]	relative IC50 (HSC2 [4]) [nM]	relative IC50 (STS26T [5]) [nM]	relative IC50 (S1507-2 [6]) [nM]	relative IC50 (HSC1 [7]) [nM]	relative IC50 (HS-PSS [8]) [nM]	relative IC50 (ST8814 [9]) [nM]	relative IC50 (HSC2 [10]) [nM]	relative IC50 (STS26T [11]) [nM]	relative IC50 (S1507-2 [12]) [nM]	relative IC50 (S462) [nM]
O=c1[nH]cc(F)c(=O)[nH]1 [Fluorouracil]	2870	3580	3570	> 10000	3280	3290	907	> 10000	> 10000	> 10000	> 10000	> 10000			
CCCCCCCCCCCCCCCCCCOP(=O)([O-])OC1CC[N+](C)(C)CC1 [Perifosine aq/PBS]		> 2500				> 2500	602	> 2500	> 2500			> 2500	963		
CN1CCN(c2ccc3nc(-c4c(N)c5c(F)cccc5[nH]c4=O)[nH]c3c2)CC1 [Dovitinib]			> 10000	> 10000				> 10000	> 10000	> 10000	> 10000	> 10000	> 10000		
C[C@@H]1CCN(C(=O)CC#N)C[C@@H]1N(C)c1ncnc2[nH]ccc12 [Tofacitinib]	> 5000		> 5000	> 5000	> 5000	742		> 5000	> 5000	> 5000	> 5000	> 5000	> 5000		
CN(C)CCOc1ccc(/C(=C(/CCCl)c2ccccc2)c2ccccc2)cc1 [Toremifene]	3460		3430	4060	3740	2870	3440	3220	> 10000	> 10000	2820	> 10000			
CCc1cncnc1N1CCN(Cc2nc3ccc(C(F)(F)F)cc3[nH]2)CC1	3740		2570					> 10000	> 10000	> 10000	> 10000	> 10000	> 10000		
C[C@@H]1C[C@H]2[C@@H]3CCC4=CC(=O)C=C[C@]4(C)[C@@]3(F)[C@@H](O)C[C@]2(C)[C@@]1(O)C(=O)CO [Dexamethasone]		> 10000	> 10000			> 10000	> 10000	> 10000	> 10000	> 10000	> 10000	> 10000	> 10000		
Cc1cc(C(C)Nc2ccccc2)c2nc(N3CCOCC3)cc(=O)n2c1 (configuration not stated) [TGX-221]			> 10000		3370	> 10000	875	> 10000	> 10000	> 10000	> 10000	> 10000			
COC1=CC(c2cc3ccccc3[nH]2)=N/C1=C\c1[nH]c(C)cc1C [Obatoclax]	1590	1370	1990	2880	1230	1360	2330		2220	> 10000	2870	2100	2960	1900	1960
CN1CC[C@H](c2c(O)cc(O)c3c(=O)cc(-c4ccccc4Cl)oc23)[C@H](O)C1 [Alvocidib]	195	219	120	173	185	243	185		484	194	931	304	614	299	170
Cc1ccc(F)c(NC(=O)Nc2ccc(-c3cccc4[nH]nc(N)c34)cc2)c1 [Linifanib]	> 1000	> 1000	> 1000		> 1000		> 1000	> 1000	> 1000	> 1000	> 1000	> 1000	> 1000		
NC1(c2ccc(-c3nc4ccn5c(=O)[nH]nc5c4cc3-c3ccccc3)cc2)CCC1 [MK-2206]				> 1000	128	> 1000	118	> 1000	> 1000	> 1000	> 1000	> 1000	> 1000		
COc1cc2nccc(Oc3ccc(NC(=O)C4(C(=O)Nc5ccc(F)cc5)CC4)cc3)c2cc1OC [Cabozantinib]					> 1000	> 1000		> 1000	> 1000	> 1000	> 1000	> 1000	> 1000		
CCc1cnn2c(NCc3ccc[n+]([O-])c3)cc(N3CCCC[C@H]3CCO)nc12 [Dinaciclib]	8.55	21.6	10.1	29.5	7.48	13.6	12.7		84.2	7.72	36.4	43.9	8.71	25.9	6.5
